These results are taken from PMC5997408 (Chemical Research in Toxicology, 2017).

The target in one data set is NQO1 (Homo sapiens, UniProt P15559). As to the kind of experiment: Inhibition of recombinant NQO1, DCPIP reduction. It is filed as biochemical.
The target in data set [1] is T1, NQO2 (Homo sapiens, UniProt P16083).
T1 sequence (P16083 1-231): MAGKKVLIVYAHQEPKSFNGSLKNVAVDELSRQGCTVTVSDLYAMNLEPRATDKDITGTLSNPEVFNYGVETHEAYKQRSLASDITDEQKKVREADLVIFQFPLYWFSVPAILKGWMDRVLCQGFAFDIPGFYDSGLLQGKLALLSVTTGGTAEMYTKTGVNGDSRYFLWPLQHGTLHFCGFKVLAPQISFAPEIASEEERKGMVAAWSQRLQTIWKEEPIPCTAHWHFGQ
Briefly: Inhibition of recombinant NQO2, menadione as substrate with BNAH. It is filed as biochemical.

The target of data set [2] is T1, NQO2. As to the kind of experiment: Enzyme kinetics of DCPIP reduction by NQO2. Particulars: 50 nM NQO2, 100 µM BNAH. It is filed as biochemical.
Another data set has as its system CYP. The settings on record: up to 25 μM of tacrine, all four microsomal-activated drugs (data not shown).
The conditions of data set [3]: cited from earlier work.
Data set [4] addresses T1, NQO2. Briefly: Inhibition of recombinant NQO2, DCPIP reduction with BNAH. Type of data set: biochemical.
The target in data set [5] is T1, NQO2. Briefly: Inhibition of recombinant NQO2, MTT reduction with BNAH. It is filed as biochemical.
The target in data set [6] is T1, NQO2. The settings on record: 0.25 μM NQO2, tacrine 0, 5, 10, or 20 μM, 50 μM quinone imine.

The Km is the concentration of substrate that gives half-maximal velocity. One may read the Ki as a dissociation constant, usually derived from enzyme kinetics or from competition with a known ligand.

Chain of NQO1 (P15559 whole entry): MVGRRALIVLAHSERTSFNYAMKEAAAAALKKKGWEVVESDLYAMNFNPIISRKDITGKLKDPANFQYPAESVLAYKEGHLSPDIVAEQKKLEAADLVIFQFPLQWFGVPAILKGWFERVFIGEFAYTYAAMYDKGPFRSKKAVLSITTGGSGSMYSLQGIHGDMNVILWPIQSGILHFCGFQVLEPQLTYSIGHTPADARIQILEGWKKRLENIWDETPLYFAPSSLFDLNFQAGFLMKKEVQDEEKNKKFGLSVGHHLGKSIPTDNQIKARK

Take `CC(=O)Nc1ccc(O)cc1` [Acetaminophen, acetaminophen]: at NQO1 (up to 1 mM), the “inhibition of NQO1 activity” value is reported as “did not inhibit”. Besides, on NQO2 [1] (up to 1 mM), the “inhibition of NQO2 activity” value is listed as “did not inhibit”.
For `O=C1C(Cl)=CC(=Nc2ccc(O)cc2)C=C1Cl` [DCPIP, 2,6-dichlorophenolindophenol], the Km on NQO2 [2] came to 25 µM.
Regarding `O=C(O)Cc1ccccc1Nc1c(Cl)cccc1Cl` [diclofenac], the Ki at NQO1 was found to be 13 µM.
`Cc1cccc(Nc2ccccc2C(=O)O)c1C` [mefenamic acid]: the inhibition constant (Ki) at NQO1 turned out to be 40 µM; on NQO2 [1], 66 µM.
Regarding `Nc1c2c(nc3ccccc13)CCCC2` [tacrine], the “effect on CYP metabolism” value with CYP is recorded as “no effect”. In addition, the “plasma concentration of tacrine in humans” value in data set [3] was “around 0.04 μM”. The Ki at NQO2 [4] (Ki value, range over DCPIP and MTT as substrate) was 3 to 15 µM; on NQO2 [4] (Ki, recombinant NQO2, substrate DCPIP (25 μM), 100 μM BNAH, mean ± SD (n = 3)), 3 ± 1 µM; at NQO2 [5] it was 15 ± 1 µM; on NQO1, 193 ± 1 µM. Moreover, on NQO2 [4] (substrate DCPIP), the “Ki fold lower than found for NQO2 inhibition by resveratrol” value worked out at 9 fold. Moreover, at NQO2 [4] (substrate DCPIP), the “Ki for NQO2 fold lower compared to the Ki for NQO1” value came to 64 fold. Besides, the “inhibition of NQO2-mediated reduction of synthetic amodiaquine quinone imine” value at NQO2 [6] was “concentration-dependent inhibition”.
